# Source: patent publication US10106510B2, “Substituted isoxazoles for treating cancer” (EPIZYME, INC., priority 2014, dated 2018)
# Molecular target: SMYD3 (Homo sapiens (Human), UniProt Q9H7B4)
# Assay: SMYD3 biochemical assay (SMYD3 enzyme assay on MEKK2 protein substrate, scintillation proximity assay)
# Conditions: 3H-SAM, SPA, IC50 values are an average of n = 1 to n = 50, read-out: SMYD3 Biochem IC50
# Text: S-adenosylmethionine (SAM), S-adenosylhomocysteine (SAH), Tris, Tween20, dimethylsulfoxide (DMSO), bovine skin gelatin (BSG), and Tris(2-carboxyethyl)phosphine hydrochloride solution (TCEP) were purchased from Sigma-Aldrich at the highest level of purity possible. ^3H-SAM was purchase from American Radiolabeled Chemicals with a specific activity of 80 Ci/mmol. 384-well opaque white OptiPlates and SPA beads (Perkin Elmer, catalog # RPNQ0013) were purchased from PerkinElmer.
# N-terminally GST-tagged MEKK2 (MAP3K2) protein corresponding to reference sequence AAF63496.3 was purchased from Life Technologies (catalog # PV4010). […] Protein identity was confirmed by MS/MS analysis after proteolytic digestion. The protein sequence used was:
# Full-length human SMYD3 isoform 1 (BAB86333) was inserted into a modified pET21b plasmid containing a His6 tag and TEV and SUMO cleavage sites. Because two common variants of SMYD3 exist in the population, site directed mutagenesis was subsequently performed to change amino acid 13 from an asparagine to a lysine, resulting in plasmid pEPZ533.
# E. coli (BL21 codonplus RIL strain, Stratagene) were transformed with plasmid pEPZ553 by mixing competent cells and plasmid DNA and incubating on ice for 30minutes followed by heat shock at 42° C. for 1 minute and cooling on ice for 2 minutes. Transformed cells were grown and selected on LB agar with 100 μg/mL ampicillin and 17 μg/mL chloramphenicol at 37° C. overnight. A single clone was used to inoculate 200 mL of LB medium with 100 μg/mL ampicillin and 17 μg/mL chloramphenicol and incubated at 37° C. on an orbital shaker at 180 rpm. Once in log growth, the culture was diluted 1:100 into 2 L of LB medium and grown until OD600 was about 0.3 after which the culture was incubated at 15° C. and 160 rpm. Once OD600 reached about 0.4, IPTG was added to a final concentration of 0.1 mM and the cells were grown overnight at 15° C. and 160 rpm. Cells were harvested by centrifugation at 8000 rpm, for 4 minutes at 4° C. and stored at −80° C. for purification.
# The column was washed with Buffer B (Buffer A plus 20 mM imidazole) and His-tagged SMYD3 was eluted with Buffer C (Buffer A plus 300 mM imidazole). The His tag, TEV and SUMO cleavage sites were removed generating native SMYD3 by addition of ULP1 protein at a ratio of 1:200 (ULP1:SMYD3). Imidazole was removed by dialysis overnight in Buffer A. The dialyzed solution was applied to a second Nickel column and the native SMYD3 protein was collected from the column flow-through. The flow-through was dialyzed in Buffer D (25 mM Tris, 5% glycerol, 5 mM β-mercaptoethanol, 50 mM NaCl, pH7.8) and ULP1 was removed using a Q sepharose fast flow column.
# General Procedure for SMYD3 Enzyme Assays on MEKK2 Protein Substrate
# The assays were all performed in a buffer consisting of 25 mM Tris-Cl pH 8.0, 1 mM TCEP, 0.005% BSG, and 0.005% Tween 20, prepared on the day of use. Compounds in 100% DMSO (1 ul) were spotted into a 384-well white opaque OptiPlate using a Bravo automated liquid handling platform outfitted with a 384-channel head (Agilent Technologies). DMSO (1 ul) was added to Columns 11, 12, 23, 24, rows A-H for the maximum signal control and 1 ul of SAH, a known product and inhibitor of SMYD3, was added to columns 11, 12, 23, 24, rows I-P for the minimum signal control. A cocktail (40 ul) containing the SMYD3 enzyme was added by Multidrop Combi (Thermo-Fisher). The compounds were allowed to incubate with SMYD3 for 30 min at room temperature, then a cocktail (10 ul) containing SAM and MEKK2 was added to initiate the reaction (final volume=51 ul).
# SMYD3, sequence (Q9H7B4 whole entry): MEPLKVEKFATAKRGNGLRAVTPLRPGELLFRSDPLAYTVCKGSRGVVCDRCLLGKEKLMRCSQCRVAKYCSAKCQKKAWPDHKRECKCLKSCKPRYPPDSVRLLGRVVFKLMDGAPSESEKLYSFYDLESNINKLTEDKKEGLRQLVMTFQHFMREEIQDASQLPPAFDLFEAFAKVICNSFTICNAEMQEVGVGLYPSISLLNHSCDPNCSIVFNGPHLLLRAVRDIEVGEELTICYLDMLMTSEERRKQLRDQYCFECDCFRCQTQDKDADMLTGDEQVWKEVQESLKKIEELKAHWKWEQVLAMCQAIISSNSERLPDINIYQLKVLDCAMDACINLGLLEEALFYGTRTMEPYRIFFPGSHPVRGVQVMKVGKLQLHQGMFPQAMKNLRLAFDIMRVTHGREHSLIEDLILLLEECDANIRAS
row,SMILES,IC50
1,"C[C@H](N)CC(=O)N[C@H]1CC[C@H](N(Cc2ccccc2)C(=O)c2cc(C3CC3)on2)CC1 [compound 53, N-((1S,4r)-4-((S)-3-aminobutanamido)cyclohexyl)-N-benzyl-5-cyclopropylisoxazole-3-carboxamide]",19700 nM
2,"CN(C(=O)c1cc(C2CC2)on1)[C@H]1CC[C@@H](NC(=O)CCN)CC1 [compound 59, N-((1s,4s)-4-(3-aminopropanamido)cyclohexyl)-5-cyclopropyl-N-methylisoxazole-3-carboxamide]",36600 nM
3,"C[C@H](N)CC(=O)N[C@H]1CC[C@@H](N(C)C(=O)c2cc(C3CC3)on2)CC1 [compound 57, N-((1R,4s)-4-((S)-3-aminobutanamido)cyclohexyl)-5-cyclopropyl-N-methylisoxazole-3-carboxamide]",25800 nM
4,"C[C@@H](N)CC(=O)N[C@H]1CC[C@H](N(CCO)C(=O)c2cc(C3CC3)on2)CC1 [compound 50, N-((1R,4r)-4-((R)-3-aminobutanamido)cyclohexyl)-5-cyclopropyl-N-(2-hydroxyethyl)isoxazole-3-carboxamide]",14500 nM
5,"C[C@H](N)CC(=O)N[C@H]1CC[C@H](N(C)C(=O)c2cc(C3CC3)on2)CC1 [compound 58, N-((1S,4r)-4-((S)-3-aminobutanamido)cyclohexyl)-5-cyclopropyl-N-methylisoxazole-3-carboxamide]",6110 nM
6,"C[C@H](N)CC(=O)N[C@H]1CC[C@H](N(CCc2ccccc2)C(=O)c2cc(C3CC3)on2)CC1 [compound 54, N-((1S,4r)-4-((S)-3-aminobutanamido)cyclohexyl)-5-cyclopropyl-N-phenethylisoxazole-3-carboxamide]",11600 nM
7,"CN(C(=O)c1cc(C2CC2)on1)[C@H]1CC[C@H](NC(=O)CCN)CC1 [compound 60, N-((1r,4r)-4-(3-aminopropanamido)cyclohexyl)-5-cyclopropyl-N-methylisoxazole-3-carboxamide]",5290 nM
8,"C[C@H](N)CC(=O)N[C@H]1CC[C@H](N(CCO)C(=O)c2cc(C3CC3)on2)CC1 [compound 51, N-((1S,4r)-4-((S)-3-aminobutanamido)cyclohexyl)-5-cyclopropyl-N-(2-hydroxyethyl)isoxazole-3-carboxamide]",13800 nM
9,"NCCC(=O)N[C@H]1CC[C@H](N(CCO)C(=O)c2cc(C3CC3)on2)CC1 [compound 52, N-((1r,4r)-4-(3-aminopropanamido)cyclohexyl)-5-cyclopropyl-N-(2-hydroxyethyl)isoxazole-3-carboxamide]",16800 nM
10,"NCCCN(C(=O)CCO)[C@H]1CC[C@H](NC(=O)c2cc(C3CC3)on2)CC1 [compound 36, N-((1r,4r)-4-(N-(3-aminopropyl)-3-hydroxypropanamido)cyclohexyl)-5-cyclopropylisoxazole-3-carboxamide]",7030 nM
11,"COCCN(C(=O)c1cc(C2CC2)on1)[C@H]1CC[C@H](NC(=O)C[C@@H](C)N)CC1 [compound 40, N-((1R,4r)-4-((R)-3-aminobutanamido)cyclohexyl)-5-cyclopropyl-N-(2-methoxyethyl)isoxazole-3-carboxamide]",9690 nM
12,"C[C@@H](N)CC(=O)N[C@H]1CC[C@H](N(C)C(=O)c2cc(C3CC3)on2)CC1 [compound 56, N-((1R,4r)-4-((R)-3-aminobutanamido)cyclohexyl)-5-cyclopropyl-N-methylisoxazole-3-carboxamide]",9280 nM

# These reach a lower IC50. Values come first.
row,IC50,SMILES
1,3120 nM,"CC(C)CN(C(=O)c1cc(C2CC2)on1)[C@H]1CC[C@H](NC(=O)C[C@@H](C)N)CC1 [compound 47, N-((1R,4r)-4-((R)-3-aminobutanamido)cyclohexyl)-5-cyclopropyl-N-isobutylisoxazole-3-carboxamide]"
2,2440 nM,"CCc1cc(C(=O)N[C@H]2CC[C@H](N)C[C@H]2CC)no1 [compound 2, N-((1S,2R,4S)-4-amino-2-ethylcyclohexyl)-5-ethylisoxazole-3-carboxamide]"
3,2280 nM,"NCCC(=O)N(CCO)[C@H]1CC[C@H](NC(=O)c2cc(C3CC3)on2)CC1 [compound 9, N-((1r,4r)-4-(3-amino-N-(2-hydroxyethyl)propanamido)cyclohexyl)-5-cyclo-propylisoxazole-3-carboxamide]"
4,1340 nM,"NCCCS(=O)(=O)N[C@H]1CC[C@H](NC(=O)c2cc(C3CC3)on2)CC1 [Cpd. No. 34, N-((1r,4r)-4-((3-amino-propyl)sulfonamido)cyclohexyl)-5-cyclopropylisoxazole-3-carboxamide]"
5,1150 nM,"O=C(CCN1CCNCC1)N[C@H]1CC[C@H](NC(=O)c2cc(C3CC3)on2)CC1 [compound 17, 5-cyclopropyl-N-((1r,4r)-4-(3-(piperazin-1-yl)propanamido)cyclohexyl)isoxazole-3-carboxamide]"
6,919 nM,"CC(C)CNCCC(=O)N[C@H]1CC[C@H](NC(=O)c2cc(C3CC3)on2)CC1 [compound 19, 5-cyclopropyl-N-((1r,4r)-4-(3-(isobutylamino)propanamido)cyclohexyl)isoxazole-3-carboxamide]"
7,883 nM,"NCCC(=O)N(CCN)[C@H]1CC[C@H](NC(=O)c2cc(C3CC3)on2)CC1 [compound 35, N-((1r,4r)-4-(3-amino-N-(2-aminoethyl)propanamido)cyclohexyl)-5-cyclopropylisoxazole-3-carboxamide]"
8,867 nM,"CNCCC(=O)N[C@H]1CC[C@H](NC(=O)c2cc(C3CC3)on2)CC1 [compound 12, 5-cyclopropyl-N-((1r,4r)-4-(3-(methylamino)propanamido)cyclohexyl) isoxazole-3-carboxamide]"
9,853 nM,"NCCN[C@H]1CC[C@H](NC(=O)c2cc(C3CC3)on2)CC1 [compound 28, N-((1r,4r)-4-((2-aminoethyl)amino)cyclohexyl)-5-cyclopropylisoxazole-3-carboxamide]"
10,654 nM,"CC(CN)C(=O)N[C@H]1CC[C@H](NC(=O)c2cc(C3CC3)on2)CC1 (stereo partly drawn) [compound 8, N-((1r,4r)-4-(3-amino-2-methylpropanamido)cyclohexyl)-5-cyclopropylisoxazole-3-carboxamide]"
11,606 nM,"N[C@H]1CC[C@H](C(=O)N[C@H]2CC[C@H](NC(=O)c3cc(C4CC4)on3)CC2)CC1 [compound 16, N-((1R,4r)-4-((1r,4R)-4-aminocyclohexane-1-carboxamido)cyclohexyl)-5-cyclopropylisoxazole-3-carboxamide]"
12,466 nM,"CC(N)CC(=O)N[C@H]1CC[C@H](NC(=O)c2cc(C3CC3)on2)CC1 (stereo partly drawn) [compound 1, N-((1r,4r)-4-(3-aminobutanamido)cyclohexyl)-5-cyclopropylisoxazole-3-carboxamide]"
13,352 nM,"N[C@H]1CC[C@@H](C(=O)N[C@H]2CC[C@H](NC(=O)c3cc(C4CC4)on3)CC2)CC1 [compound 13, N-((1R,4r)-4-((1s,4S)-4-aminocyclohexane-1-carboxamido)cyclohexyl)-5-cyclopropylisoxazole-3-carboxamide]"
14,269 nM,"N[C@H]1C[C@H](C(=O)N[C@H]2CC[C@H](NC(=O)c3cc(C4CC4)on3)CC2)C1 [compound 22, N-((1R,4r)-4-((1r,3R)-3-aminocyclobutane-1-carboxamido)cyclohexyl)-5-cyclopropylisoxazole-3-carboxamide]"
15,170 nM,"CCc1cc(C(=O)N[C@H]2CC[C@H](NC(=O)C[C@H](C)N)C[C@H]2CC)no1 (mixture of isomers) [compound 7, Mixture of N-((1S,2R,4S)-4-((S)-3-aminobutanamido)-2-ethylcyclohexyl)-5-ethylisoxazole-3-carboxamide and N-((1R,2S,4R)-4-((S)-3-aminobutanamido)-2-ethylcyclohexyl)-5-ethylisoxazole-3-carboxamide; (1S,2R,4S) isomer depicted]"
